We go through ten compounds from US4975451A, “Insecticidal cyclopropyl di(aryl) 2-butenes” (FMC Corporation, priority 1989, dated 1990).

In general, LC50 refers to the concentration lethal to half of the exposed cells or organisms. Low readings indicate greater toxicity, high ones lower toxicity.

In brackets after ≈: the same amount, converted by molar mass.

Data set [1] has as its system twospotted spider mite. The data set can be described thus: Foliar acaricidal test, twospotted spider mite (susceptible). Conditions: Tetranychus urticae, 48 hours, read-out: % Kill TSM-S; for mortality at 100 ppm: rate 100 ppm; for mortality at 500 ppm: rate 500 ppm. The format is in vivo. The method, then:
(§1) The insecticidal activity of the pyrethroid-like compounds of this invention as identified in Table 1, appended, was evaluated as follows:
(§2) Compounds within the scope of this invention were tested by foliar application at various concentrations in aqueous solutions containing 10% (volume/volume) acetone and water. Insect species utilized included the cabbage looper (Trichoplusia ni), Mexican bean beetle (Epilachna varivestis), pea aphid (Acryrthosiphon pisum), tobacco budworm (Heliothis virescens) and twospotted spider mite (Tetranychus urticae).
Acaricidal tests were performed using the following procedure: Leaves infested with adult twospotted spider mites (Tetranvchus urticae) were removed from culture plants and cut into segments containing 50-75 female mites. Each segment was placed on the upper leaf surface of a whole pinto bean plant. After the mites had migrated to the under surfaces of the leaves, the leaf segments used to infest were removed, and each plant was sprayed with test chemicals as described above. After the plants had dried, the entire plant and pot were placed in metal trays in a hood, a supply of water in the tray keeping the plants turgid. After 48 hours the living and dead mites were counted, and percent mortality was calculated.

Data set [2] is described as follows: Fish toxicity, tilapia. The format is in vivo. Conditions: water; Tilapia (Oreochromis niloticus), 48 hour test. As for the experimental part:
Compounds of the present invention were tested for toxicity to fish using one inch long tilapia (Oreochromis niloticus). Prior to the test the tilapia were acclimated for one week in an aquarium, during which time they were fed with a ration of rice bran and pelletized hog feed. The water in the aquarium was changed daily with distilled water.
Stock solutions of each of the test chemicals were prepared by dissolving the weighed technical material in acetone and adding distilled water to provide a 1% acetone in water solution.
The test solutions were prepared by diluting the appropriate amount of a stock solution to 25 mL with distilled water. The appropriate amount of stock solution was determined for the concentration required in a final volume of 800 mL of test solution. The test chemicals were tested in triplicate at concentrations ranging from 0.005 ppm to 20 ppm. The actual concentrations of the test chemicals needed to determine LC50 values were determined by fish toxicity-range of application studies prior to the LC50 test. Each 25 mL test chemical solution was added to a one liter aquarium containing 500 mL of 0.01% (v/v) ethylene glycol in water. The aquariums were shaken gently and then allowed to stand for one hour. After this time the tilapia were added by first placing five fish in a container with 275 mL of distilled water and then pouring the water and fish into each aquarium. The dead and live fish were counted after 24 and 48 hours. Any fish observed to be dead was removed from its aquarium immediately. Upon completion of the 48 hour test period, the lethal concentration of each compound tested that would give 50% mortality to the tilapia was determined.

Data set [3] deals with tobacco budworm. Briefly: Foliar evaluation, tobacco budworm. The format is in vivo. As to conditions: Heliothis virescens, 48 hours, read-out: % Kill TBW; for mortality at 100 ppm: rate 100 ppm; for mortality at 500 ppm: rate 500 ppm. The method, then: as §1, §2
(§3) For all insects except the pea aphid, pinto beans (Phaseolus vulgaris) plants were treated with the test solutions. The test solutions were applied with a sprayer to the upper and lower surfaces of the plant leaves to runoff. The plants were then allowed to dry and were severed at the base of the stem before being placed in cups. Ten second instar individuals of the appropriate insect species, except the tobacco budworm, were placed in each cup and the cup covered. Tests with the tobacco budworm used four replicates with each replicate containing five second instar tobacco budworms. In all tests, mortality was read 48 hours later.

In data set [4] the test system is cabbage looper. Briefly: Foliar evaluation, cabbage looper. The format is in vivo. Conditions: Trichoplusia ni, 48 hours, read-out: % Kill CL; for mortality at 100 ppm: rate 100 ppm; for mortality at 500 ppm: rate 500 ppm. As for the experimental part: as §1, §2, §3
The test system of data set [5] is southern corn rootworm. Briefly: Soil evaluation, southern corn rootworm. The format is in vivo, Diabrotica undecimounctata Howardi. As to conditions: rate 7.5 ppm, 48 hours, read-out: Initial % Kill SCR. As for the experimental part:
Soil evaluation of insecticidal activity of test compounds were conducted against the southern corn rootworm (Diabrotica undecimounctata Howardi). A 0.25 ml aliquot of a stock solution containing 64 mg of the candidate insecticide in 4.0 ml of acetone was pipetted into 41 mL of distilled water containing 0.1% octylphenoxypolyethoxyethanol emulsifier. […] In all cases, four mL of each test solution was pipetted into a 4 ounce specimen cup containing two two-day-old corn sprouts completely covered by 26 grams of dry sandy soil. The treated soil in each cup was allowed to stand uncovered in a hood to evaporate the acetone. Each cup was capped and the soil in each cup was mixed thoroughly. The cap of each cup was removed, and ten second instar southern corn rootworm larvae were added to each cup. The cups were each covered with lids perforated with two small holes to allow for ventilation. The cups were then held under fluorescent light (12 hours light: 12 hours dark) at 24°-26° C. for 48 hours. An untreated check and an appropriate standard were included in each test. Two replicates were run for each chemical treatment. The unaffected larvae from the soil of each cup were extracted by placing the contents of each cup into a modified Berlese polyethylene funnel fitted with an 18-mesh screen. The funnels were placed over containers of an aqueous detergent solution. Incandescent lights (100 watts) were placed 36 cm above the soil in each funnel. The heat from these lights slowly dried the soil causing larvae that had not been affected by the candidate insecticide to emerge from the soil and drop out of the funnel into the detergent solution. The percent mortality was determined by comparing the number of live larvae in the detergent solution with the total number of larvae infested during the initiation of the test. Percent mortality was determined in this manner for each concentration.

The test system of data set [6] is pea aphid. The data set can be described thus: Foliar evaluation, pea aphid. The format is in vivo, Acryrthosiphon pisum. Conditions: Acyrthosiphon pisum, 48 hours, read-out: % Kill PA; for mortality at 100 ppm: rate 100 ppm; for mortality at 500 ppm: rate 500 ppm. As for the experimental part:
as §1, §2, §3
In the case of the pea aphid, fava bean (Vicia faba) was substituted for pinto bean. The treated, potted plants were placed in cups infested with ten individuals and covered. Mortality was read 48 hours later.

Data set [7] relates to Mexican bean beetle. Briefly: Foliar evaluation, Mexican bean beetle. The format is in vivo. As to conditions: Epilachna varivestis, 48 hours, read-out: % Kill MBB; for mortality at 100 ppm: rate 100 ppm. As for the experimental part:
as §1, §2, §3

Take `Clc1ccc(C(C=CCc2cccc(Oc3ccccc3)c2)C2CC2)cc1` (stereo not shown) [Compound 1]: the mortality at 100 ppm is 2% in data set [1]; 100% in data set [3]; 100% in data set [4]; 75% in data set [6]; 100% in data set [7]. The compound also had an LC50 at 48 h in data set [2] of 3 to 5 µg/mL (≈ 8 to 13.3 µM). Besides, the mortality at 7.5 ppm in data set [5] was determined as 45%.
Turning to `Fc1ccc(CC=CC(c2ccc(Cl)cc2)C2CC2)cc1Oc1ccccc1` (stereo not shown) [Compound 2, 1-cyclopropyl-1-(4-chlorophenyl)-4-(4-fluoro-3-phenoxyphenyl)-2-butene], the mortality at 100 ppm is 0% in data set [1]; 100% in data set [3]; 100% in data set [4]; 80% in data set [6]; 100% in data set [7]. This compound registered an LC50 at 48 h in data set [2] of 7.5 to 10 µg/mL (≈ 19.1 to 25.5 µM). The mortality at 7.5 ppm in data set [5] came out at 45%.
With `FC(F)(F)c1ccc(C(C=CCc2cccc(Oc3ccccc3)c2)C2CC2)cc1` (stereo not shown) [Compound 3], the mortality at 100 ppm in data set [1] amounted to 90%; in data set [3], 100%; in data set [4], 90%; in data set [6] it was 45%; in data set [7], 100%. In addition, in data set [2], the median lethal concentration (LC50) at 48 h is 5 to 7.5 µg/mL (≈ 12.2 to 18.4 µM). Also, the mortality at 7.5 ppm in data set [5] was 60%.
`Fc1ccc(CC=CC(c2ccc(C(F)(F)F)cc2)C2CC2)cc1Oc1ccccc1` (stereo not shown) [Compound 4]: the mortality at 100 ppm in data set [1] was determined as 90%; in data set [3], 100%; in data set [4], 100%; in data set [6], 90%; in data set [7], 100%.
Take `FC(F)(F)Oc1ccc(C(C=CCc2cccc(Oc3ccccc3)c2)C2CC2)cc1` (stereo not shown) [Compound 5]: the mortality at 100 ppm came out at 100% in data set [1]; 80% in data set [3]; 85% in data set [4]; 100% in data set [6]; 100% in data set [7]. Further, the 50% lethal concentration (LC50) at 48 h in data set [2] fell in the range of 1 to 3 µg/mL (≈ 2.36 to 7.07 µM). For the same compound, the mortality at 7.5 ppm in data set [5] was 50%.
On to `Fc1ccc(CC=CC(c2ccc(OC(F)(F)F)cc2)C2CC2)cc1Oc1ccccc1` (stereo not shown) [Compound 6, 1-cyclopropyl-1-(4-trifluoromethoxyphenyl)-4-(4-fluoro-3-phenoxyphenyl)-2-butene], for which the mortality at 100 ppm in data set [1] was determined as 99%; in data set [3], 100%; in data set [4], 100%; in data set [6] it was 85%; in data set [7] it was 100%. Moreover, the LC50 at 48 h in data set [2] stood at 9 µg/mL (≈ 20.3 µM). In data set [5], the mortality at 7.5 ppm worked out at 70%.
With `Cc1c(CC=CC(c2ccc(Cl)cc2)C2CC2)cccc1-c1ccccc1` (stereo not shown) [Compound 7], the mortality at 500 ppm is 7% in data set [1]; 100% in data set [3]; 100% in data set [4]; 60% in data set [6]; 100% in data set [7] (rate 500 ppm). The mortality at 7.5 ppm in data set [5] was determined as 50%.
As to `Cc1c(CC=CC(c2ccc(OCC3CC3)cc2)C2CC2)cccc1-c1ccccc1` (stereo not shown) [Compound 8], the mortality at 500 ppm in data set [1] was 0%; in data set [3], 22%; in data set [4], 100%; in data set [6], 5%.
Consider `CCOc1ccc(C(C=CCc2cccc(-c3ccccc3)c2C)C2CC2)cc1` (stereo not shown) [Compound 9], for which the mortality at 1000 ppm in data set [1] (rate 1000 ppm) was 100%; in data set [4] (rate 1000 ppm) it was 100%; in data set [6] (rate 1000 ppm) it was 100%; in data set [7] (rate 1000 ppm), 90%.
In data set [2], `CC1(C)C(C=C(Cl)Cl)C1C(=O)OC(C#N)c1cccc(Oc2ccccc2)c1` (stereo not shown) [cypermethrin, reference compound] registered a 50% lethal concentration (LC50) at 48 h of 0.02 µg/mL (≈ 0.048 µM).
